{"source": "paper PMC5242325", "about": "(Antiviral therapy, 2015)", "key": {"[1]": {"conditions": "female genital tract compared to BP; cited from earlier work"}, "[2]": {"conditions": "administration of a moderate fat meal; cited from earlier work"}, "[3]": {"assay": "Raltegravir pharmacokinetics in cervicovaginal fluid", "conditions": "CVF, median (IQR); for AUC(0-t): AUC 0-12h"}, "[4]": {"assay": "Raltegravir pharmacokinetics in blood plasma", "conditions": "for AUC(0-t): AUC 0-12h; for AUC(0-t) / concentration at 12 h / Cmax: BP, median (IQR)"}, "[5]": {"conditions": "female, human, in vivo, 400 mg, first dose, HIV-infected postmenopausal women (n=5)"}, "[6]": {"conditions": "female, human, in vivo, 400 mg, steady state, HIV-infected postmenopausal women (n=5)"}, "[7]": {"conditions": "female, human, in vivo, 400 mg, steady state, HIV-infected premenopausal women (n=6)"}, "[8]": {"conditions": "female, human, in vivo, 400 mg, C12, first dose, HIV-infected postmenopausal women (n=5)"}, "[9]": {"conditions": "female, human, in vivo, 400 mg, C12, steady state, HIV-infected postmenopausal women (n=5)"}, "[10]": {"conditions": "female, human, in vivo, 400 mg, C12, steady state, HIV-infected premenopausal women (n=6)"}, "[11]": {"conditions": "female, human, in vivo, 400 mg, Cmax, first dose, HIV-infected postmenopausal women (n=5)"}, "[12]": {"conditions": "female, human, in vivo, 400 mg, Cmax, steady state, HIV-infected premenopausal women (n=6)"}}, "data": [{"molecule": "C[C@@H]1CCO[C@H]2Cn3cc(C(=O)NCc4ccc(F)cc4F)c(=O)c(O)c3C(=O)N12", "note": "[dolutegravir]", "values": [{"measurement": "CVF:BP AUC ratio", "setting": "[1]", "result": 0.07}]}, {"molecule": "Cc1nnc(C(=O)NC(C)(C)c2nc(C(=O)NCc3ccc(F)cc3)c(O)c(=O)n2C)o1", "note": "[raltegravir]", "values": [{"measurement": "increase in AUC", "setting": "[2]", "result": 13, "unit": "%"}, {"measurement": "AUC(0-t)", "setting": "[3]; [5]", "result": 13800, "unit": "ng·h/mL"}, {"measurement": "AUC(0-t)", "setting": "[3]; female, human, in vivo, 400 mg, first dose, HIV-negative premenopausal women (n=7), BLD imputed 0.1 ng/ml", "result": 1720, "unit": "ng·h/mL"}, {"measurement": "AUC(0-t)", "setting": "[3]; [6]", "result": 9570, "unit": "ng·h/mL"}, {"measurement": "AUC(0-t)", "setting": "[3]; [7]", "result": 11500, "unit": "ng·h/mL"}, {"measurement": "AUC(0-t)", "setting": "[3]; female, human, in vivo, 400 mg, steady state, HIV-negative premenopausal women (n=7), BLD imputed 0.1 ng/ml", "result": 3160, "unit": "ng·h/mL"}, {"measurement": "concentration at 12 h", "setting": "[3]; [8]", "result": 1290, "unit": "ng/mL"}, {"measurement": "concentration at 12 h", "setting": "[3]; [9]", "result": 958, "unit": "ng/mL"}, {"measurement": "concentration at 12 h", "setting": "[3]; [10]", "result": 447, "unit": "ng/mL"}, {"measurement": "Cmax", "setting": "[3]; [11]", "result": 4780, "unit": "ng/mL"}, {"measurement": "Cmax", "setting": "[3]; [12]", "result": 1920, "unit": "ng/mL"}, {"measurement": "Cmax", "setting": "[3]; steady state, HIV-infected postmenopausal women (n=5)", "result": "2841 (326-4430) ng/mL"}, {"measurement": "AUC(0-t)", "setting": "[4]; [5]", "result": 4240, "unit": "ng·h/mL"}, {"measurement": "AUC(0-t)", "setting": "[4]; female, human, in vivo, 400 mg, first dose, HIV-negative premenopausal women (n=7)", "result": 3100, "unit": "ng·h/mL"}, {"measurement": "AUC(0-t)", "setting": "[4]; [6]", "result": 6180, "unit": "ng·h/mL"}, {"measurement": "AUC(0-t)", "setting": "[4]; [7]", "result": 5760, "unit": "ng·h/mL"}, {"measurement": "AUC(0-t)", "setting": "[4]; female, human, in vivo, 400 mg, steady state, HIV-negative premenopausal women (n=7)", "result": 8440, "unit": "ng·h/mL"}, {"measurement": "concentration at 12 h", "setting": "[4]; [8]", "result": 222, "unit": "ng/mL"}, {"measurement": "concentration at 12 h", "setting": "[4]; female, human, in vivo, 400 mg, C12, first dose, HIV-negative premenopausal women (n=7)", "result": 54, "unit": "ng/mL"}, {"measurement": "concentration at 12 h", "setting": "[4]; [9]", "result": 310, "unit": "ng/mL"}, {"measurement": "concentration at 12 h", "setting": "[4]; [10]", "result": 23, "unit": "ng/mL"}, {"measurement": "concentration at 12 h", "setting": "[4]; female, human, in vivo, 400 mg, C12, steady state, HIV-negative premenopausal women (n=7)", "result": 303, "unit": "ng/mL"}, {"measurement": "Cmax", "setting": "[4]; [11]", "result": 1660, "unit": "ng/mL"}, {"measurement": "Cmax", "setting": "[4]; female, human, in vivo, 400 mg, Cmax, first dose, HIV-negative premenopausal women (n=7)", "result": 790, "unit": "ng/mL"}, {"measurement": "Cmax", "setting": "[4]; female, human, in vivo, 400 mg, Cmax, steady state, HIV-infected postmenopausal women (n=5)", "result": 1170, "unit": "ng/mL"}, {"measurement": "Cmax", "setting": "[4]; [12]", "result": 1980, "unit": "ng/mL"}, {"measurement": "time after dosing by which all subjects had detectable concentrations in BP", "setting": "[4]; first dose, HIV-negative premenopausal and HIV-infected postmenopausal women", "result": "≤ 1", "unit": "h"}, {"measurement": "Cmax", "setting": "[4]; steady state, HIV-negative premenopausal women (n=7)", "result": "1874 (587-2166) ng/mL"}]}]}
